Tested on: male rats
Settings: rat, in vivo

Row | Compound | effect on test peptide induced penile erection | effect on penile erections induced by 2 μg of the test peptides into the PVN | also measured
1 | C[C@]12N[C@H](Cc3ccccc31)c1ccccc12 [MK 801, dizolcipine] | did not modify the penile erection | – | –
2 | CN1CC[C@]23c4c5ccc(O)c4O[C@H]2[C@@H](O)C=C[C@H]3[C@H]1C5 [morphine] | – | reduced in a dose-dependent manner | –
3 | COC(=O)[C@@H](N)CCCNC(=N)N[N+](=O)[O-] [L-NAME, N^G -nitro-1-arginine methyl ester] | – | reduced in a dose dependent manner | –
4 | OCCN1CCN(CC/C=C2/c3ccccc3Sc3ccc(C(F)(F)F)cc32)CC1 [cis-flupenthixol] | did not modify the penile erection | – | –
5 | ω-conotoxin-GVIA | – | – | effect on penile erection induced by 2 μg of the test peptides into the PVN: reduced penile erection

Source: US6211156A (priority 1999, dated 2001)
